In US12662491B2 (Redona Therapeutics, Inc., priority 2020, dated 2026):

These compounds were tested against T1, Zcchc11 enzyme (Homo sapiens, UniProt Q5TAX3) (assay: TUTase assay (Zcchc11 assay, Lin28a-dependent polyuridylation of pre-let-7)). Conditions: Lin28a-dependent Zcchc11 (Z11) TUTase activity; read-out: Potency Lin28a-dep Z11 IC50.
T1 construct: made in house; host or cells: HEK293 cells (Zcchc11); E. coli Rosetta II (LIN28A)
T1 sequence (Q5TAX3 212-1420): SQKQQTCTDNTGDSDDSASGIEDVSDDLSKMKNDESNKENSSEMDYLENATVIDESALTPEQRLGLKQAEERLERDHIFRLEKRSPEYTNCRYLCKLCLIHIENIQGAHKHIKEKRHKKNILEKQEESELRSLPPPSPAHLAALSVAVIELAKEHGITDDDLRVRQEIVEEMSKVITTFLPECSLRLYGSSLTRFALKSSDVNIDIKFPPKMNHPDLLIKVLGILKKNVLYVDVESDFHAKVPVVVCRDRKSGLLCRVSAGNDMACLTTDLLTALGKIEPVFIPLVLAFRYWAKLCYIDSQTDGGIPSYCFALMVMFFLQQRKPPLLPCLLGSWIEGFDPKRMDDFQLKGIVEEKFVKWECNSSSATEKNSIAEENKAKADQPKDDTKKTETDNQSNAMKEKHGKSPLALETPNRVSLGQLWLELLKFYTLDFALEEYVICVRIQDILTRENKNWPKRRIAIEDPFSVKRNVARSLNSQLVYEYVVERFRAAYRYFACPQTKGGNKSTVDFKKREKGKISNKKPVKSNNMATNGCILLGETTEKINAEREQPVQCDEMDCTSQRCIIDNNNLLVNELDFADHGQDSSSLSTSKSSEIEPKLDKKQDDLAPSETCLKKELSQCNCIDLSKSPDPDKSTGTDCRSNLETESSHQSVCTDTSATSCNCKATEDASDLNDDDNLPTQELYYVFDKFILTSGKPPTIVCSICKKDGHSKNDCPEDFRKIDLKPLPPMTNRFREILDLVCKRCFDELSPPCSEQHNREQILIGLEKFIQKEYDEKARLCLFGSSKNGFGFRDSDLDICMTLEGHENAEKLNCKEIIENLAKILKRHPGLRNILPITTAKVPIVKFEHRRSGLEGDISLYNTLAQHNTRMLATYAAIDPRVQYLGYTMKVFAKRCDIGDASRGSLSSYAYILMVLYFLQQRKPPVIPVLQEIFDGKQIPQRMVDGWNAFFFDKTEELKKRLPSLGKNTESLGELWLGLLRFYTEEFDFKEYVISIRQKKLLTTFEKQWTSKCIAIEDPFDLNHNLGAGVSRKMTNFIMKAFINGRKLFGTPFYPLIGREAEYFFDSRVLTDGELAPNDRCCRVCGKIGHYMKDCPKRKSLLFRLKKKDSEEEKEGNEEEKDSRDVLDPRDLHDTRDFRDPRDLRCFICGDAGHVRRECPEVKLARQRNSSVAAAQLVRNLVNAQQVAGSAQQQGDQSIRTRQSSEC
Format: biochemical
Procedure, shortened: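 LIN28A (10 nM) in pH 7.3 HEPES/KCl/MgCl2/DTT buffer was mixed with serially diluted compound, then 0.2 nM truncated human Zcchc11 and 2 nM labeled pre-let-7 were added for 30 min at room temperature. UTP (5 uM) and quench probe (4 nM) then started the reaction. Linear early rates gave IC50 values.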

Row | Structure (SMILES) | IC50 [nM]
1 | CC(C)[C@@H]1COC(=O)N1C[C@H]1CCCN1c1cc2c(cc1Cl)c(=O)c(C(=O)O)cn2C1(C)CC1 [Compound 141, 6-chloro-7-((R)-2-(((R)-4-isopropyl-2-oxooxazolidin-3-yl)methyl)pyrrolidin-1-yl)-1-(1-methylcyclo-propyl)-4-oxo-1,4-dihydro-quinoline-3-carboxylic acid] | > 50000
2 | O=C(O)c1cn(-c2cccc(F)c2F)c2cc(N3CCC[C@@H]3COc3ccccn3)c(F)cc2c1=O [Compound 142, (R)-1-(2,3-difluorophenyl)-6-fluoro-4-oxo-7-(2-((pyridin-2-yloxy)methyl)pyrrolidin-1-yl)-1,4-dihydro-quinoline-3-carboxylic acid] | 1000 to 10000
3 | O=C(O)c1cn(-c2cc(F)ccc2F)c2cc(N3CCC[C@@H]3COc3ccccn3)c(F)cc2c1=O [Compound 143, (R)-1-(2,5-difluorophenyl)-6-fluoro-4-oxo-7-(2-((pyridin-2-yloxy)methyl)pyrrolidin-1-yl)-1,4-dihydro-quinoline-3-carboxylic acid] | 1000 to 10000
4 | O=C(O)c1cn(-c2cc(F)cc(F)c2)c2cc(N3CCC[C@@H]3COc3ccccn3)c(F)cc2c1=O [Compound 144, (R)-1-(3,5-difluorophenyl)-6-fluoro-4-oxo-7-(2-((pyridin-2-yloxy)methyl)pyrrolidin-1-yl)-1,4-dihydro-quinoline-3-carboxylic acid] | 1000 to 10000
5 | O=C(O)c1cn(-c2ccc(Cl)cc2)c2cc(N3CCC[C@@H]3COc3ccccn3)c(F)cc2c1=O [Compound 145, (R)-1-(4-chlorophenyl)-6-fluoro-4-oxo-7-(2-((pyridin-2-yloxy)methyl)pyrrolidin-1-yl)-1,4-dihydro-quinoline-3-carboxylic acid] | ≤ 1000
6 | COc1cccc(-n2cc(C(=O)O)c(=O)c3cc(F)c(N4CCC[C@@H]4COc4ccccn4)cc32)c1 [Compound 146, (R)-6-fluoro-1-(3-methoxy-phenyl)-4-oxo-7-(2-((pyridin-2-yloxy)methyl)pyrrolidin-1-yl)-1,4-dihydro-quinoline-3-carboxylic acid] | ≤ 1000
7 | COc1ccc(-n2cc(C(=O)O)c(=O)c3cc(F)c(N4CCC[C@@H]4COc4ccccn4)cc32)cc1 [Compound 147, (R)-6-fluoro-1-(4-methoxy-phenyl)-4-oxo-7-(2-((pyridin-2-yloxy)methyl)pyrrolidin-1-yl)-1,4-dihydro-quinoline-3-carboxylic acid] | ≤ 1000
8 | CS(=O)(=O)Nc1ccc(-n2cc(C(=O)O)c(=O)c3cc(F)c(N4CCC[C@@H]4COc4ccccn4)cc32)cc1 [Compound 148, (R)-6-fluoro-1-(4-(methyl-sulfonamido)phenyl)-4-oxo-7-(2-((pyridin-2-yloxy)methyl)pyrrolidin-1-yl)-1,4-dihydro-quinoline-3-carboxylic acid] | ≤ 1000
9 | O=C(O)c1cn(-c2ccc(F)c(F)c2)c2cc(N3CCC[C@@H]3COc3ccccn3)c(F)cc2c1=O [Compound 149, (R)-1-(3,4-difluorophenyl)-6-fluoro-4-oxo-7-(2-((pyridin-2-yloxy)methyl)pyrrolidin-1-yl)-1,4-dihydro-quinoline-3-carboxylic acid] | 1000 to 10000
10 | O=C(O)c1cn(-c2ccc(F)cn2)c2cc(N3CCC[C@@H]3COc3ccccn3)c(F)cc2c1=O [Compound 150, (R)-6-fluoro-1-(5-fluoropyridin-2-yl)-4-oxo-7-(2-((pyridin-2-yloxy)methyl)pyrrolidin-1-yl)-1,4-dihydro-quinoline-3-carboxylic acid] | 1000 to 10000
11 | O=C(O)c1cn(-c2ccc(F)cc2)c2cc(N3CCC[C@@H]3COc3ccccn3)c(F)cc2c1=O [Compound 151, (R)-6-fluoro-1-(4-fluorophenyl)-4-oxo-7-(2-((pyridin-2-yloxy)methyl)pyrrolidin-1-yl)-1,4-dihydro-quinoline-3-carboxylic acid] | ≤ 1000
12 | O=C(O)c1cn(-c2ccc(O)cc2Cl)c2cc(N3CCC[C@@H]3COc3ccccn3)c(F)cc2c1=O [Compound 152, (R)-1-(2-chloro-4-hydroxy-phenyl)-6-fluoro-4-oxo-7-(2-((pyridin-2-yloxy)methyl)pyrrolidin-1-yl)-1,4-dihydro-quinoline-3-carboxylic acid] | 1000 to 10000
13 | O=C(O)c1cn(-c2cc(F)ccc2Cl)c2cc(N3CCC[C@@H]3COc3ccccn3)c(F)cc2c1=O [Compound 153, (R)-1-(2-chloro-5-fluorophenyl)-6-fluoro-4-oxo-7-(2-((pyridin-2-yloxy)methyl)pyrrolidin-1-yl)-1,4-dihydro-quinoline-3-carboxylic acid] | 1000 to 10000
14 | Cc1cccc(F)c1-n1cc(C(=O)O)c(=O)c2cc(F)c(N3CCC[C@@H]3COc3ccccn3)cc21 [Compound 154, (R)-6-fluoro-1-(2-fluoro-6-methylphenyl)-4-oxo-7-(2-((pyridin-2-yloxy)methyl)pyrrolidin-1-yl)-1,4-dihydro-quinoline-3-carboxylic acid] | 1000 to 10000
15 | Cc1cccc(-n2cc(C(=O)O)c(=O)c3cc(F)c(N4CCC[C@@H]4COc4ccccn4)cc32)c1 [Compound 155, (R)-6-fluoro-4-oxo-7-(2-((pyridin-2-yloxy)methyl)pyrrolidin-1-yl)-1-(m-tolyl)-1,4-dihydro-quinoline-3-carboxylic acid] | ≤ 1000
16 | Cc1ccc(-n2cc(C(=O)O)c(=O)c3cc(F)c(N4CCC[C@@H]4COc4ccccn4)cc32)c(C)c1 [Compound 156, (R)-1-(2,4-dimethyl-phenyl)-6-fluoro-4-oxo-7-(2-((pyridin-2-yloxy)methyl)pyrrolidin-1-yl)-1,4-dihydro-quinoline-3-carboxylic acid] | 1000 to 10000
17 | COc1ccc(Cl)c(-n2cc(C(=O)O)c(=O)c3cc(F)c(N4CCC[C@@H]4COc4ccccn4)cc32)c1 [Compound 157, (R)-1-(2-chloro-5-methoxy-phenyl)-6-fluoro-4-oxo-7-(2-((pyridin-2-yloxy)methyl)pyrrolidin-1-yl)-1,4-dihydro-quinoline-3-carboxylic acid] | 1000 to 10000
18 | COc1ccc(F)c(-n2cc(C(=O)O)c(=O)c3cc(F)c(N4CCC[C@@H]4COc4ccccn4)cc32)c1 [Compound 158, (R)-6-fluoro-1-(2-fluoro-5-methoxy-phenyl)-4-oxo-7-(2-((pyridin-2-yloxy)methyl)pyrrolidin-1-yl)-1,4-dihydro-quinoline-3-carboxylic acid] | 1000 to 10000
19 | CC(=O)Nc1ccc(-n2cc(C(=O)O)c(=O)c3cc(F)c(N4CCC[C@@H]4COc4ccccn4)cc32)cc1 [Compound 159, (R)-1-(4-acetamido-phenyl)-6-fluoro-4-oxo-7-(2-((pyridin-2-yloxy)methyl)pyrrolidin-1-yl)-1,4-dihydro-quinoline-3-carboxylic acid] | ≤ 1000
20 | O=C(O)c1cn(-c2ccccc2CO)c2cc(N3CCC[C@@H]3COc3ccccn3)c(F)cc2c1=O [Compound 160, (R)-6-fluoro-1-(2-(hydroxy-methyl)phenyl)-4-oxo-7-(2-((pyridin-2-yloxy)methyl)pyrrolidin-1-yl)-1,4-dihydro-quinoline-3-carboxylic acid] | 1000 to 10000
21 | CCc1ccccc1-n1cc(C(=O)O)c(=O)c2cc(F)c(N3CCC[C@@H]3COc3ccccn3)cc21 [Compound 161, (R)-1-(2-ethylphenyl)-6-fluoro-4-oxo-7-(2-((pyridin-2-yloxy)methyl)pyrrolidin-1-yl)-1,4-dihydro-quinoline-3-carboxylic acid] | 1000 to 10000
22 | O=C(O)c1cn(-c2ccc(CO)cc2)c2cc(N3CCC[C@@H]3COc3ccccn3)c(F)cc2c1=O [Compound 162, (R)-6-fluoro-1-(4-(hydroxy-methyl)phenyl)-4-oxo-7-(2-((pyridin-2-yloxy)methyl)pyrrolidin-1-yl)-1,4-dihydro-quinoline-3-carboxylic acid] | ≤ 1000
23 | O=C(O)c1cn(C2COC2)c2cc(N3CCC[C@@H]3COc3ccccn3)c(F)cc2c1=O [Compound 163, (R)-6-fluoro-1-(oxetan-3-yl)-4-oxo-7-(2-((pyridin-2-yloxy)methyl)pyrrolidin-1-yl)-1,4-dihydro-quinoline-3-carboxylic acid] | 1000 to 10000
